According to the supplement of paper PMC10627819:

Tests used:
B. subtilis 168 [1] = test: Bliss interaction score (quartile over a dose matrix) (fitness difference); higher = more antagonism (negative = synergy)
How it was run: (§1)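 Each OD595 reading at entry into stationary phase was scaled to the robust mean of the untreated wells on its plate, with a ceiling of 1. These ratios define fitness, and single-drug fitness was inferred from combinations. The Bliss score compares observed fitness with the product-based expectation and is reported as quartiles across all replicate types, technical, biological and donor/recipient.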

S. aureus DSM 20231 [2] = test: as above
How it was run: as §1

S. aureus Newman [3] = test: as above
How it was run: as §1

S. pneumoniae D39V [4] = test: as above
How it was run: as §1

B. subtilis 168 [5] = test: fitness (endpoint OD595 vs no drug) (fraction); higher = more growth
How it was run: (§2)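 At 37 °C, bacteria in TSB, LB Lennox or CY were grown in 384-well plates from a starting OD595 of 0.01. OD595 was measured every 30 min for 14 h, with the first reading used as background. Fitness is the optical density at the switch to stationary phase as a fraction of the robust mean of no-drug control wells, capped at 1.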

S. aureus DSM 20231 [6] = test: as above
How it was run: as §2

S. aureus Newman [7] = test: as above
How it was run: as §2

S. pneumoniae D39V [8] = test: as above
How it was run: as §2
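Throughout, for Bliss interaction score (quartile over a dose matrix): first quartile when negative (synergy) and third quartile when positive (antagonism).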
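Throughout, for fitness (endpoint OD595 vs no drug): OD595 on entry to stationary phase over no-drug wells; at most 1.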

CCCCCCCCCC(=O)N[C@@H](Cc1c[nH]c2ccccc12)C(=O)N[C@H](CC(N)=O)C(=O)N[C@@H](CC(=O)O)C(=O)N[C@@H]1C(=O)NCC(=O)N[C@@H](CCCN)C(=O)N[C@@H](CC(=O)O)C(=O)N[C@H](C)C(=O)N[C@@H](CC(=O)O)C(=O)NCC(=O)N[C@H](CO)C(=O)N[C@@H]([C@H](C)CC(=O)O)C(=O)N[C@@H](CC(=O)c2ccccc2N)C(=O)O[C@@H]1C [Daptomycin] + COc1cccc2c1C(=O)c1c(O)c3c(c(O)c1C2=O)C[C@@](O)(C(=O)CO)C[C@@H]3O[C@H]1C[C@H](N)[C@H](O)[C@H](C)O1 [Doxorubicin]
Details | Bliss interaction score
B. subtilis 168 [1] | 0.0744
S. aureus DSM 20231 [2] | 0.0493
S. aureus Newman [3] | -0.0594
S. pneumoniae D39V [4] | 0.0772

Details | fitness
B. subtilis 168 [5], first compound 0.125 µg/mL, partner 0.625 µg/mL | 0.93
B. subtilis 168 [5], first compound 0.125 µg/mL, partner 1.25 µg/mL | 0.905
B. subtilis 168 [5], first compound 0.125 µg/mL, partner 2.5 µg/mL | 0.628
B. subtilis 168 [5], first compound 0.25 µg/mL, partner 0.625 µg/mL | 0.93
B. subtilis 168 [5], first compound 0.25 µg/mL, partner 1.25 µg/mL | 0.911
B. subtilis 168 [5], first compound 0.5 µg/mL, partner 0.625 µg/mL | 0.84
S. aureus DSM 20231 [6], first compound 0.5 µg/mL, partner 0.625 µg/mL | 0.91
S. aureus DSM 20231 [6], first compound 0.5 µg/mL, partner 1.25 µg/mL | 0.935
S. aureus DSM 20231 [6], first compound 0.5 µg/mL, partner 2.5 µg/mL | 0.829
S. aureus DSM 20231 [6], first compound 1 µg/mL, partner 0.625 µg/mL | 0.887
S. aureus DSM 20231 [6], first compound 1 µg/mL, partner 1.25 µg/mL | 0.961
S. aureus DSM 20231 [6], first compound 1 µg/mL, partner 2.5 µg/mL | 0.852
S. aureus DSM 20231 [6], first compound 2 µg/mL, partner 0.625 µg/mL | 0.926
S. aureus DSM 20231 [6], first compound 2 µg/mL, partner 1.25 µg/mL | 0.914
S. aureus DSM 20231 [6], first compound 2 µg/mL, partner 2.5 µg/mL | 0.841
S. aureus Newman [7], first compound 0.125 µg/mL, partner 0.625 µg/mL | 0.867
S. aureus Newman [7], first compound 0.125 µg/mL, partner 1.25 µg/mL | 0.865
S. aureus Newman [7], first compound 0.125 µg/mL, partner 2.5 µg/mL | 0.739
S. aureus Newman [7], first compound 0.25 µg/mL, partner 0.625 µg/mL | 0.869
S. aureus Newman [7], first compound 0.25 µg/mL, partner 1.25 µg/mL | 0.851
S. aureus Newman [7], first compound 0.25 µg/mL, partner 2.5 µg/mL | 0.748
S. aureus Newman [7], first compound 0.5 µg/mL, partner 0.625 µg/mL | 0.829
S. aureus Newman [7], first compound 0.5 µg/mL, partner 1.25 µg/mL | 0.834
S. aureus Newman [7], first compound 0.5 µg/mL, partner 2.5 µg/mL | 0.755
S. pneumoniae D39V [8], first compound 1 µg/mL, partner 0.25 µg/mL | 0.86
S. pneumoniae D39V [8], first compound 1 µg/mL, partner 0.5 µg/mL | 0.876
S. pneumoniae D39V [8], first compound 1 µg/mL, partner 1 µg/mL | 0.669
S. pneumoniae D39V [8], first compound 2 µg/mL, partner 0.25 µg/mL | 0.936
S. pneumoniae D39V [8], first compound 2 µg/mL, partner 0.5 µg/mL | 0.875
S. pneumoniae D39V [8], first compound 2 µg/mL, partner 1 µg/mL | 0.721
S. pneumoniae D39V [8], first compound 4 µg/mL, partner 1 µg/mL | 0.686

B. subtilis 168 [5], first compound 1 µg/mL, one replicate
Details | fitness
partner 0.625 µg/mL | 0.783
partner 1.25 µg/mL | 0.645
partner 2.5 µg/mL | 0.197

CCN(CC)CCOC(=O)c1ccc(N)cc1 [Procaine] + CC1=C\[C@@H](O)CC(=O)Cc2nc(co2)C(=O)N2CCC=C2C(=O)O[C@H](C(C)C)[C@H](C)/C=C/C(=O)NC\C=C\1 [Virginiamycin M1]
Details | Bliss interaction score
B. subtilis 168 [1] | -0.0324
S. aureus DSM 20231 [2] | -0.0838
S. aureus Newman [3] | 0.0179
S. pneumoniae D39V [4] | 0.036

fitness
Details | first compound 85.5 µg/mL | first compound 171 µg/mL | first compound 342 µg/mL
B. subtilis 168 [5], partner 0.0625 µg/mL | 0.957 | 0.962 | 0.904
B. subtilis 168 [5], partner 0.125 µg/mL | 0.88 | 0.92 | 0.881
B. subtilis 168 [5], partner 0.25 µg/mL | 0.905 | 0.892 | 0.882
S. aureus DSM 20231 [6], partner 0.0625 µg/mL | – | 0.976 | 0.872
S. aureus DSM 20231 [6], partner 0.125 µg/mL | – | ≥ 1 | ≥ 1
S. aureus DSM 20231 [6], partner 0.25 µg/mL | 0.94 | 0.906 | 0.878
S. pneumoniae D39V [8], partner 0.5 µg/mL | ≥ 1 | ≥ 1 | ≥ 1
S. pneumoniae D39V [8], partner 1 µg/mL | ≥ 1 | ≥ 1 | ≥ 1
S. pneumoniae D39V [8], partner 2 µg/mL | 0.948 | 0.926 | 0.951

fitness, one replicate
Details | first compound 85.5 µg/mL | first compound 171 µg/mL | first compound 342 µg/mL
S. aureus DSM 20231 [6], partner 0.5 µg/mL | 0.82 | 0.747 | 0.842
S. aureus DSM 20231 [6], partner 1 µg/mL | 0.726 | 0.774 | 0.779
S. aureus Newman [7], partner 0.0625 µg/mL | ≥ 1 | ≥ 1 | ≥ 1
S. aureus Newman [7], partner 0.125 µg/mL | ≥ 1 | ≥ 1 | ≥ 1
S. aureus Newman [7], partner 0.25 µg/mL | ≥ 1 | ≥ 1 | ≥ 1
S. aureus Newman [7], partner 0.5 µg/mL | 0.851 | 0.766 | 0.795
S. aureus Newman [7], partner 1 µg/mL | 0.977 | ≥ 1 | 0.968
S. aureus Newman [7], partner 2 µg/mL | 0.913 | 0.91 | 0.812
S. pneumoniae D39V [8], partner 0.15 µg/mL | 0.976 | 0.936 | 0.971
S. pneumoniae D39V [8], partner 0.3 µg/mL | 0.983 | 0.941 | 0.934

CCCCCCCCCC(=O)N[C@@H](Cc1c[nH]c2ccccc12)C(=O)N[C@H](CC(N)=O)C(=O)N[C@@H](CC(=O)O)C(=O)N[C@@H]1C(=O)NCC(=O)N[C@@H](CCCN)C(=O)N[C@@H](CC(=O)O)C(=O)N[C@H](C)C(=O)N[C@@H](CC(=O)O)C(=O)NCC(=O)N[C@H](CO)C(=O)N[C@@H]([C@H](C)CC(=O)O)C(=O)N[C@@H](CC(=O)c2ccccc2N)C(=O)O[C@@H]1C [Daptomycin] + CCN(CC)CCOC(=O)c1ccc(N)cc1 [Procaine]
Details | Bliss interaction score
B. subtilis 168 [1] | -0.0699
S. aureus DSM 20231 [2] | 0.0381
S. aureus Newman [3] | 0.0445
S. pneumoniae D39V [4] | 0.0859

fitness
Details | first compound 0.125 µg/mL | first compound 0.25 µg/mL | first compound 0.5 µg/mL | first compound 1 µg/mL | first compound 2 µg/mL | first compound 4 µg/mL
B. subtilis 168 [5], partner 85.5 µg/mL | 0.873 | 0.946 | 0.864 | – | – | –
B. subtilis 168 [5], partner 171 µg/mL | 0.9 | 0.898 | 0.799 | – | – | –
B. subtilis 168 [5], partner 342 µg/mL | 0.874 | 0.836 | 0.854 | – | – | –
S. aureus DSM 20231 [6], partner 85.5 µg/mL | 0.912 | 0.913 | 0.931 | 0.956 | 0.774 | –
S. aureus DSM 20231 [6], partner 171 µg/mL | ≥ 1 | ≥ 1 | ≥ 1 | 0.873 | 0.822 | –
S. aureus DSM 20231 [6], partner 342 µg/mL | 0.995 | 0.989 | ≥ 1 | 0.953 | 0.808 | –
S. aureus Newman [7], partner 85.5 µg/mL | ≥ 1 | ≥ 1 | ≥ 1 | – | – | –
S. aureus Newman [7], partner 171 µg/mL | 0.984 | ≥ 1 | ≥ 1 | – | – | –
S. aureus Newman [7], partner 342 µg/mL | 0.989 | 0.98 | ≥ 1 | – | – | –
S. pneumoniae D39V [8], partner 85.5 µg/mL | – | – | – | 0.994 | 0.961 | 0.945
S. pneumoniae D39V [8], partner 171 µg/mL | – | – | – | 0.98 | 0.97 | 0.951
S. pneumoniae D39V [8], partner 342 µg/mL | – | – | – | 0.942 | 0.906 | 0.893

B. subtilis 168 [5], first compound 1 µg/mL, one replicate
Details | fitness
partner 85.5 µg/mL | 0.717
partner 171 µg/mL | 0.685
partner 342 µg/mL | 0.682
